Where no end group is shown, it is not given here. [ ]: non-standard residue; d: D form. hArg = N=C(N)NCCCC[C@H](N)C(=O)O
How the values were obtained:
[1] = system: HRMEC cells; experiment: VEGF induced proliferation of HRMEC cells (Alamar-Blue); type: cell-based; settings: 300 μg/ml; 10 ng/ml or 50 ng/ml VEGF165; 3 days
Experimental: 2000 HRMEC cells were seeded in 96-well plates in 100 μl of media and placed in a CO2 incubator at 37° C. To evaluate the effect the compounds have on VEGF-induced HRMEC proliferation, cells were treated with 10 ng/ml VEGF165 or 50 ng/ml VEGF165 in the presence of different concentrations of Angio-3 after serum starved in EBM-2 supplemented with 0.5% FBS overnight. 300 μg/ml Avastin was used as a positive control. Alamar-Blue assay was performed after 3 days of treatment.

[2] = system: HRMEC cells; experiment: HRMEC transwell migration assay; type: cell-based; settings: 300 μg/ml; 50 ng/ml VEGF165; overnight
Experimental: Transwell migration assays were performed in a 24-well cells culture plate containing 8.0 μm pore size inserts. HRMEC cells were serum starved overnight prior of assay. The lower chamber were filled with EBM-2, EBM-2 supplemented with 50 ng/ml VEGF165 plus different concentrations of inhibitors. 1×10^5 Cells in EBM-2 were seeded in the upper chamber. Cells were allowed to migrate to the other side of membrane for overnight at 37° C. Cells on top of the membrane were wiped off and cells migrated to the other side were fixed and stained with 0.4% crystal violet. Cell numbers were counted under a 10× objective for 5 randomly selected fields.

[3] = system: laser-induced CNV in C57/BL6J (B6J) wild type mice; experiment: Laser-induced choroidal neovascularization (CNV) model in mice, area of leakage by FFA; type: in vivo; settings: for Area of Leakage (mean) Week 1 / Area of Leakage (mean) Week 4: laser-induced CNV mice; for Area of Leakage (mean) Week 1 / Area of Leakage (mean) Week 4 / choroidal angiogenesis: prevention mode; for % Reduction (area of leakage): vehicle control = 0%; for choroidal angiogenesis: B6J mice, single intravitreal injection at dose 100 ng, 1 g, and 5 μg
Experimental: FIG. 3A is a schematic of the experimental design on the efficacy of Angio-3 in a laser-induced choroidal neovascularization (CNV) model in mice (B6J WT mice). FIG. 3B are FFA images of baseline and at different time points post treatment. IV single injection of 100 μL of Angio-3 (25 mg/Kg Bwt) was given at Day 0 (prevention mode) and 4 days after laser (regression mode) and followed for 10 weeks. FIG. 3C is a graph showing the area of leakage by each eye for various groups. FIG. 3D are graphs of the mean area of leakage of all batches for each group. […] The attenuation retinal vascularization was better than scrambled peptide. n=6 eyes per batch; n=3 batches. Values are expressed as means±s.e.m., **P<0.01, *P<0.05, student's t-test. FIG. 3E is a graph of the result of the Retinal Function Test that measures ERG changes in Angio-3 treated and control.
FIG. 4A is a schematic of the experimental design on the efficacy of Angio-3 by IVT administration. […]
FIG. 11 A are FFA images of baseline and at different time points post treatment. Mice received single IVT injection of Angio-3 (at a dose of 1 μg in 1 μl or 100 ng in 1 μl), and chemically modified Angio-3 peptides Pep-N (at doses of 5 μg in μl; 1 μg in μl; and 100 ng in 1 μl, respectively) and Pep-Q peptides (at doses of 5 μg in μl; 1 μg in μl; and 100 ng in 1 μl, respectively). FIG. 11 B is a graph of the area of leakage by each eye. Single dose attenuates retinal angiogenesis in laser-induced mice CNV model via IVT route till 4 weeks. […] Eylea is the positive control. n=18 eyes per group; Values are expressed as means±s.e.m. n=3 independent experiment, **P<0.01, *P<0.05, student's t-test.
Laser induced choridal neo-vascularization (CNV) in C57/BL6J (B6J) wild type mice (n=90).
In B6J mice, single injection of 100 μl volume at 25 mg/kg Bwt concentration Angio-3 was injected via intravenous (i/v) route and this was tested in both Preventive mode (before laser) and Regression mode (4 days after laser). […]
Angio-3 was also injected via intravitreal (IVT) route, single injection of 1 μl volume at 2 different doses; 1 μg (High dose) and 100 ng (Low dose).
4 laser photocoagulation sites were placed concentrically around the optic disc of both eyes to induce CNVs. A diode laser (810 nm) was used with a relative potency scale of 120 mW for mice and 250 mW for rats, an exposure time of 0.05 s, and a spot size of […]. Laser spots were focused with crystal covers to avoid laser beam dispersion. Bubble formation was confirmed the rupture of Bruch's membrane.
Fundus photography and fundus fluorescein angiography (FFA) was imaged using a MICRON IV fundus camera (Phoenix Laboratories USA). For FFA, animals were intraperitoneally injected with 10% sodium fluorescein at a dose of 0.01 ml per 5-6 gm body weight.
In B6J mice, single intravitreous (IVT) injection of 100 ng, 1 μg, 5 μg PEP-Q, PEP-N (modified Angio-3), Angio-3 and Eylea were executed and this was tested in Prevention mode (before laser) Method of Llser induced CNV model and injection was described as above.

[4] = system: corneal neovascularization after alkali-burn injury in mice; experiment: Corneal neovascularization after alkali-burn injury in mice; type: in vivo, mouse; settings: 1% solution topically 3×/day for 7 days; vs vehicle control
Experimental: Mice were anesthetized with the combination of 80 mg/kg ketamine and 5 mg/kg xylazine. One drop of 1% xylocaine was applied to the corneal surface for local analgesia. Round piece of filter paper, approximately 2 mm in diameter was soaked in a solution of 1 M NaOH. A piece of NaOH soaked filter paper was picked by sterile forceps. NAOH soaked filter paper was placed on the central cornea under microscope to ensure properly placing the filter paper. Left it for 30 sec to generate an acute alkali-burn of approximately 2×2 mm^2 in area. Filter paper was removed and then gently flushed the eye with 10 ml of 1×PBS twice to wash away residual 1 M NaOH. Only one eye of the mouse was injured and the other serving as a control. A drop of 1× Peptide Q (1% solution as test compound) or a vehicle control consisting of PBS was topically applied to the cornea. Repeated application occurred 3×/day for 7 days. At end point, clinical assessment was done as stated below and eyes were enucleated for corneal flat mount.
A daily examination of the mice in a blinded fashion was performed under a surgical microscope and score corneal neo-vascularization (NV) was based on corneal opacity, NV and vessel size. Two observers were scored and record a final score that was the average of the two. Score corneal opacity on a scale of 0-4. […]

[5] = system: laser-induced CNV in Cynomolgus monkeys; experiment: Laser-induced CNV model in Cynomolgus monkeys (wet AMD model); type: in vivo, Cynomolgus monkey; settings: 2 mg Angio-3, 2 mg and 4 mg PeptideQ, 2 mg Eylea, single IVT
Experimental: FIGS. 25A, 25B, 25C, 25D, 25E, and 25F show the results of testing in a laser-induced chorodial neovascularization (CNV) model in Cynomolgus moneys developed as an experimental model of wet AMD. FIG. 25A is a schematic of the study design. FIG. 25B are representative fundus fluorescein angiography (FFA) images of all groups. FIG. 25C is a graph showing change in mean lesion grade of the eye in monkeys treated with a single dose 2 mg of Angio-3, dose 2 mg of anti-VEGF (Eylea), 2 mg of peptide (Q2) and 4 mg of peptide (Q4) and control. […] FIG. 25E is a graph of laser area quantified from the FFA images by ImageJ software. FIG. 25F are graphs of laser volume quantified from PS-OCT images by ImageJ software.
A laser-induced choroidal neovascularization (CNV) model was developed and validated in Cynomolgus monkeys as experimental model of wet AMD. […] The development of active CNV was assessed by fluorescein angiography, at Day 14 the baseline degree of neovascularization and leakiness were measured and the final fluorescein angiography assessment was performed on Day 28. Leakage area was quantified by ImageJ software. The laser volume was quantified by Spectralis-Heidelberg software using SD-OCT images.

Row | Substance | VEGF induced HRMEC proliferation [1] | VEGF induced HRMEC migration [2] | Area of Leakage (mean) Week 1 ([3]; 100 ng single IVT) | Area of Leakage (mean) Week 4 ([3]; 100 ng single IVT) | % Reduction (area of leakage) ([3]; 100 ng single IVT) [%] | Area of Leakage (mean) Week 1 ([3]; 1 μg single IVT) | Area of Leakage (mean) Week 4 ([3]; 1 μg single IVT) | % Reduction (area of leakage) ([3]; 1 μg single IVT) [%] | Area of Leakage (mean) Week 1 ([3]; 5 μg single IVT) | Area of Leakage (mean) Week 4 ([3]; 5 μg single IVT) | % Reduction (area of leakage) ([3]; 5 μg single IVT) [%] | choroidal angiogenesis [3] | corneal NV area seven days after alkali-burn injury [4] | comparative efficacy between treatment groups [5]
1 | bevacizumab [Avastin] | sufficient to inhibit VEGF induce proliferation | completely blocked |  |  |  |  |  |  |  |  |  |  |  | 
2 | Thr Pro His Thr His Asn Xaa Thr Pro Glu, wherein Xaa is homoarginine (TPHTHN[hArg]TPE) [PEP-N, chemically modified Angio-3 peptide] |  |  | 11287.40 | 2237.13 | 42.00 | 12808.95 | 2402.54 | 43.06 | 8251.43 | 749.71 | 52.73 | significantly attenuates the choroidal angiogenesis |  | 
3 | Thr Pro His Thr His Gln Xaa Thr Pro Glu, wherein Xaa is homoarginine (TPHTHQ[hArg]TPE) [PEP-Q, chemically modified Angio-3 peptide] |  |  | 9987.09 | 1283.52 | 48.96 | 13444.14 | 1271.30 | 52.36 | 12839.27 | 742.03 | 56.04 | significantly attenuates the choroidal angiogenesis | significantly reduced corneal NV area | dose dependent efficacy and higher dose efficacy close to Eylea

— patent publication US11266710B2, “Angio-3 for treatment of retinal angiogenic diseases” (SINGAPORE HEALTH SERVICES PTE LTD, priority 2017, dated 2022)
